Source: US20110201869A1, “METHOD AND APPARATUS FOR ENHANCED TRANSDERMAL DIFFUSION” (OBJ LIMITED, priority 2008, published 2011)

What was measured:
[1] = in vitro Franz Cell diffusion study through excised epidermis; format: in vitro ADME, piglet
Procedure: FIG. 4 is a plot of the substance Tetracaine through excised piglet ear epidermis in an in vitro Franz Cell diffusion study. Epidermal membranes were obtained by heat separation (60 sec at 60° C., Kligman and Christophers 1963). Skin integrity was determined by conductance measurement before the experiment. Skin sections from each ear were matched over the groups per experiment. Epidermal membranes were placed between the donor and receptor compartments of Franz-type diffusion cells with the stratum corneum facing the donor chamber. The epidermal membranes were equilibrated with the receptor solution (USP PBS, pH 7.4) for 30 min. The receptor compartment of the cell was immersed in a water bath at 37±0.5° C., and stirred every 5 min throughout the experiment. After equilibration, the donor solution consisting of 1 mL of 2 (FIG. 4a) or 4% Tetracaine HCL (FIG. 4B; Sigma) in PBS was added, and the present invention was suspended 3 mm above the surface of the donor fluid (i.e. 8 mm above the epidermal surface). The passive diffusion cells received the same donor drug concentration and were covered with parafilm only, i.e. no material of the present invention was applied. The administration period was 0-1 hr. Samples of the receptor solution were removed and replaced with fresh buffer over a 60 minute period. All samples were analysed for Tetracaine hydrochloride content by spectrophotometric detection (absorbance at 229 nm). The cumulative amount of Tetracaine hydrochloride in the receptor compartment versus time was plotted for both experiments. After the diffusion experiment the skin, still fixed in the diffusion chamber, was stained with standard HE dye. The diffusion area was investigated under a microscope for the occurrence of damage to the skin. Data derived from epidermis with low skin integrity was excluded from analysis and graphical depiction.
FIG. 5 is a plot of the substance Sumatriptan through excised piglet ear epidermis in an in vitro Franz Cell diffusion study. […] All samples were analysed for Sumatriptan content by spectrophotometric detection (absorbance at 285 nm). […]

[2] = Methyl Nicotinate Laser-Doppler vasodilation model (transdermal delivery in vivo); set-up: species or system human
Excerpt: FIG. 7 depicts the enhancing effects of the present invention on the delivery of Methyl Nicotinate through human skin in vivo. The Methyl Nicotinate Laser-Doppler vasodilation model was used (see Hollaway et al, J. Invest Dermatol 69:306-309, 1977; Wester et al., J. Invest Dermatol 83:515-517, 1984). […] In short, successful transdermal delivery of the rubifacient Methyl Nicotinate through the skin results in pronounced vasodilation, increased perfusion and erythema. […] The Methyl Nicotinate induced vasodilation can be measured using a non-invasive Laser Doppler Flow or Perfusion meter with data being provided as a numeric value equitable to local in vivo blood perfusion. The present experiment involved the saturation of 4 cm^2 tissue paper units with Methyl Nicotinate (5 mmolar in PBS). The Methyl Nicotinate tissues were applied to the skin of the volar forearm. The present invention (4 cm^2) and the passive surrogate units were placed over the Methyl Nicotinate soaked paper units. For 5 minutes one active and one passive unit were applied adjacently onto the skin of the forearm. Subsequently, all materials were removed from the skin and the skin was patted dry. Laser Doppler perfusion probes (Moor Instruments Laser Doppler Perfusion Meter) were placed over both areas and blood perfusion rates were monitored for a 30 minute period. […]

## CCCCNc1ccc(C(=O)OCCN(C)C)cc1 [Tetracaine]
[1]; 2% Tetracaine HCL in PBS donor, 0-1 hr, magnetic device suspended 8 mm above epidermal surface, FIG. 4A
  diffusion through excised epidermis under the influence of the present invention compared to passive diffusion: enhanced diffusion
[1]; 4% Tetracaine HCL in PBS donor, 0-1 hr, magnetic device suspended 8 mm above epidermal surface, FIG. 4B
  diffusion through excised epidermis under the influence of the present invention compared to passive diffusion: enhanced diffusion

## CNS(=O)(=O)Cc1ccc2[nH]cc(CCN(C)C)c2c1 [Sumatriptan]
[1]; Sumatriptan succinate 2 mg/ml donor, 0-30 min, FIG. 5
  diffusion through excised epidermis under the influence of the present invention compared to passive diffusion: enhanced diffusion

## COC(=O)c1cccnc1 [Methyl Nicotinate]
[2]; 5 mmolar in PBS, 5 minutes application on volar forearm, perfusion monitored 30 minutes, FIG. 7
  delivery through human skin in vivo with the present invention compared with passive diffusion (blood perfusion by Laser Doppler): effective at enhanced delivery
[2]; 2 milli-molar, human forearm skin in vivo, FIG. 8
  diffusion with 480 gauss / 300 poles per meter versus 120 gauss / 500 poles per meter device: similar
